From article PMC8963254, “Effects of Lysine N-ζ-Methylation in Ultrashort Tetrabasic Lipopeptides (UTBLPs) on the Potentiation of Rifampicin, Novobiocin, and Niclosamide in Gram-Negative Bacteria” (Antibiotics, 2022)
Converted amounts (≈) assume the structure as drawn. Where two headings read alike, the source gives them in different places.

Legend:
E. faecium ATCC 27270 [1] = format: cell-based, Enterococcus faecium
Method: (§1) The synergy of the UTBLPs with various antibiotics was assessed using checkerboard assay as previously described. Briefly, the combination of antibiotic and OMP at varying concentrations were incubated with bacterial inoculum (5 × 10^5 CFU/mL final concentration) at 37 °C for 18 h. Growth in the form of turbidity was confirmed using an EMax Plus microplate reader (Molecular Devices, Union City, CA, USA) at 590 nm. Fractional inhibitory concentration index (FICI) was used to evaluate the interaction between the antibiotic and the OMP. FICI is the sum of the FIC of the antibiotic and the FIC of the OMP. The FIC value is calculated by dividing the MIC of the agents in combination by the MIC of the agent alone. FICI ≤ 0.5 is synergistic, 0.5 < x ≤ 4 is additive, and >4 is antagonistic.

K. pneumoniae 113250 [2] = assay: microbe, parasite or virus in culture; format: cell-based, Klebsiella pneumoniae; conditions: 113250, 18 h
Method: (§2) The in vitro antibacterial activity of the UTBLPs was assessed against wild-type and clinically isolated bacterial strains. To obtain the MIC of the compounds, the microbroth dilution susceptibility assay was performed according to the Clinical and Laboratory Standards Institute (CLSI, Wayne, PA, USA) guidelines and as previously described. Briefly, the compounds at varying concentrations were incubated with bacterial inoculum (5 × 10^5 CFU/mL final concentration) at 37 °C for 18 h. Growth in the form of turbidity was confirmed using an EMax Plus microplate reader (Molecular Devices, San Jose, CA, USA) at 590 nm.

S. aureus ATCC 29213 = format: cell-based, Staphylococcus aureus
Method: as §1

MRSA ATCC 33592 = format: cell-based, Staphylococcus aureus
Method: as §1

A. baumannii 92247 = format: cell-based, Acinetobacter baumannii; conditions: for MICUTBLP: UTBLP alone
Method: as §1

A. baumannii AB027 = format: cell-based, Acinetobacter baumannii; conditions: for MICUTBLP: UTBLP alone
Method: as §1

A. baumannii ATCC 17978 = format: cell-based, Acinetobacter baumannii; conditions: for MICUTBLP: UTBLP alone
Method: as §1

E. coli ATCC 25922 = format: cell-based, Escherichia coli; conditions: for MICUTBLP: UTBLP alone
Procedure, shortened: (§3)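 Values derive from a two-agent checkerboard with an 18 h, 37 °C incubation. FICI cut-offs: ≤0.5 synergy, 0.5–4 additive, >4 antagonism.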

E. coli 94393 = format: cell-based, Escherichia coli; conditions: for MICUTBLP: UTBLP alone
Procedure, shortened: as §3

E. cloacae 118564 = assay: microbe, parasite or virus in culture; format: cell-based, Enterobacter cloacae; conditions: 118564, 18 h
Method: as §2

K. pneumoniae 113250 [3] = format: cell-based, Klebsiella pneumoniae; conditions: for MICUTBLP: UTBLP alone
Method: as §1

E. faecium ATCC 27270 [4] = format: cell-based, Enterococcus faecium; conditions: ATCC 27270, 18 h
Method: as §2

[5] = UTBLP alone, plate with chloramphenicol
[6] = UTBLP in combination with chloramphenicol
[7] = chloramphenicol in combination with the UTBLP
[8] = UTBLP in combination with novobiocin
[9] = UTBLP in combination with rifampicin
[10] = novobiocin in combination with the UTBLP
[11] = rifampicin in combination with the UTBLP
[12] = UTBLP in combination with niclosamide
[13] = niclosamide in combination with the UTBLP

- MICUTBLP (E. faecium ATCC 27270 [1]; [5]): 64 µg/mL
- MICUTBLP [MICcombo] (E. faecium ATCC 27270 [1]; [6]): 0.25 µg/mL
- MICchloramphenicol [MICcombo] (E. faecium ATCC 27270 [1]; [7]): 8 µg/mL
- MIC (K. pneumoniae 113250 [2]): > 128 µg/mL
- MICUTBLP (S. aureus ATCC 29213; [5]): 64 µg/mL
- MICUTBLP [MICcombo] (S. aureus ATCC 29213; [6]): 0.25 µg/mL
- MICchloramphenicol [MICcombo] (S. aureus ATCC 29213; [7]): 8 µg/mL
- MICUTBLP (MRSA ATCC 33592; [5]): 128 µg/mL
- MICUTBLP [MICcombo] (MRSA ATCC 33592; [6]): 0.25 µg/mL
- MICchloramphenicol [MICcombo] (MRSA ATCC 33592; [7]): 64 µg/mL
- MICUTBLP (A. baumannii 92247; plate with novobiocin): 64 µg/mL
- MICUTBLP (A. baumannii 92247; plate with rifampicin): 64 µg/mL
- MICUTBLP [MICcombo] (A. baumannii 92247; [8]): 4 µg/mL
- MICUTBLP [MICcombo] (A. baumannii 92247; [9]): 4 µg/mL
- MICantibiotic [MICcombo] (A. baumannii 92247; [10]): 0.25 µg/mL
- MICantibiotic [MICcombo] (A. baumannii 92247; [11]): 0.125 µg/mL
- MICUTBLP (A. baumannii AB027; plate with novobiocin): 128 µg/mL
- MICUTBLP (A. baumannii AB027; plate with rifampicin): 128 µg/mL
- MICUTBLP [MICcombo] (A. baumannii AB027; [8]): 8 µg/mL
- MICUTBLP [MICcombo] (A. baumannii AB027; [9]): 8 µg/mL
- MICantibiotic [MICcombo] (A. baumannii AB027; [10]): 0.125 µg/mL
- MICantibiotic [MICcombo] (A. baumannii AB027; [11]): 0.063 µg/mL
- MICUTBLP (A. baumannii ATCC 17978; plate with chloramphenicol): > 128 µg/mL
- MICUTBLP (A. baumannii ATCC 17978; plate with niclosamide): > 128 µg/mL
- MICUTBLP (A. baumannii ATCC 17978; plate with novobiocin): > 128 µg/mL
- MICUTBLP (A. baumannii ATCC 17978; plate with rifampicin): > 128 µg/mL
- MICUTBLP [MICcombo] (A. baumannii ATCC 17978; [6]): 32 µg/mL
- MICUTBLP [MICcombo] (A. baumannii ATCC 17978; [12]): 8 µg/mL
- MICUTBLP [MICcombo] (A. baumannii ATCC 17978; [8]): 16 µg/mL
- MICUTBLP [MICcombo] (A. baumannii ATCC 17978; [9]): 8 µg/mL
- MICantibiotic [MICcombo] (A. baumannii ATCC 17978; [7]): 32 µg/mL
- MICantibiotic [MICcombo] (A. baumannii ATCC 17978; [13]): 0.5 µg/mL
- MICantibiotic [MICcombo] (A. baumannii ATCC 17978; [10]): 0.125 µg/mL
- MICantibiotic [MICcombo] (A. baumannii ATCC 17978; [11]): 0.125 µg/mL
- MICUTBLP (E. coli ATCC 25922; plate with chloramphenicol): > 128 µg/mL
- MICUTBLP (E. coli ATCC 25922; plate with niclosamide): > 128 µg/mL
- MICUTBLP (E. coli ATCC 25922; plate with novobiocin): > 128 µg/mL
- MICUTBLP (E. coli ATCC 25922; plate with rifampicin): > 128 µg/mL
- MICUTBLP [MICcombo] (E. coli ATCC 25922; [6]): 32 µg/mL
- MICUTBLP [MICcombo] (E. coli ATCC 25922; [12]): 8 µg/mL
- MICUTBLP [MICcombo] (E. coli ATCC 25922; [8]): 8 µg/mL
- MICUTBLP [MICcombo] (E. coli ATCC 25922; [9]): 8 µg/mL
- MICantibiotic [MICcombo] (E. coli ATCC 25922; [7]): 1 µg/mL
- MICantibiotic [MICcombo] (E. coli ATCC 25922; [13]): 0.5 µg/mL
- MICantibiotic [MICcombo] (E. coli ATCC 25922; [10]): 0.25 µg/mL
- MICantibiotic [MICcombo] (E. coli ATCC 25922; [11]): 0.125 µg/mL
- MICUTBLP (E. coli 94393; plate with novobiocin): > 128 µg/mL
- MICUTBLP (E. coli 94393; plate with rifampicin): > 128 µg/mL
- MICUTBLP [MICcombo] (E. coli 94393; [8]): 8 µg/mL
- MICUTBLP [MICcombo] (E. coli 94393; [9]): 8 µg/mL
- MICantibiotic [MICcombo] (E. coli 94393; [10]): 0.5 µg/mL
- MICantibiotic [MICcombo] (E. coli 94393; [11]): 0.031 µg/mL
- MIC (E. cloacae 118564): > 128 µg/mL
- MICUTBLP (K. pneumoniae 113250 [3]; plate with novobiocin): > 128 µg/mL
- MICUTBLP (K. pneumoniae 113250 [3]; plate with rifampicin): > 128 µg/mL
- MICUTBLP [MICcombo] (K. pneumoniae 113250 [3]; [8]): 8 µg/mL
- MICUTBLP [MICcombo] (K. pneumoniae 113250 [3]; [9]): 16 µg/mL
- MICantibiotic [MICcombo] (K. pneumoniae 113250 [3]; [10]): 16 µg/mL
- MICantibiotic [MICcombo] (K. pneumoniae 113250 [3]; [11]): 0.5 µg/mL
- MIC (E. faecium ATCC 27270 [4]): 64 µg/mL (≈ 77.6 µM)
SMILES: CCCCCCCC(=O)N[C@@H](CCCCN)C(=O)NCCCN(CCCNC(=O)[C@H](CCCCN)NC(=O)CCCCCCC)CC(=O)N[C@@H](CCCCN)C(N)=O [UTBLP 1]
- Interpretation (E. faecium ATCC 27270 [1]; UTBLP + chloramphenicol): Additive (0.5 < x ≤ 4 is additive)
- Interpretation (MRSA ATCC 33592; UTBLP + chloramphenicol): Additive (0.5 < x ≤ 4 is additive)
- Interpretation (A. baumannii 92247; UTBLP + novobiocin): Synergy (FICI ≤ 0.5 is synergistic)
- Interpretation (A. baumannii 92247; UTBLP + rifampicin): Synergy (FICI ≤ 0.5 is synergistic)
- Interpretation (A. baumannii AB027; UTBLP + novobiocin): Synergy (FICI ≤ 0.5 is synergistic)
- Interpretation (A. baumannii AB027; UTBLP + rifampicin): Synergy (FICI ≤ 0.5 is synergistic)
- Interpretation (A. baumannii ATCC 17978; UTBLP + chloramphenicol): Additive (0.5 < x ≤ 4 is additive)
- Interpretation (A. baumannii ATCC 17978; UTBLP + niclosamide): Synergy (FICI ≤ 0.5 is synergistic)
- Interpretation (A. baumannii ATCC 17978; UTBLP + novobiocin): Synergy (FICI ≤ 0.5 is synergistic)
- Interpretation (A. baumannii ATCC 17978; UTBLP + rifampicin): Synergy (FICI ≤ 0.5 is synergistic)
- Interpretation (E. coli ATCC 25922; UTBLP + chloramphenicol): Synergy (FICI ≤ 0.5 is synergistic)
- Interpretation (E. coli ATCC 25922; UTBLP + niclosamide): Synergy (FICI ≤ 0.5 is synergistic)
- Interpretation (E. coli ATCC 25922; UTBLP + novobiocin): Synergy (FICI ≤ 0.5 is synergistic)
- Interpretation (E. coli ATCC 25922; UTBLP + rifampicin): Synergy (FICI ≤ 0.5 is synergistic)
- Interpretation (E. coli 94393; UTBLP + novobiocin): Synergy (FICI ≤ 0.5 is synergistic)
- Interpretation (E. coli 94393; UTBLP + rifampicin): Synergy (FICI ≤ 0.5 is synergistic)
- Interpretation (K. pneumoniae 113250 [3]; UTBLP + novobiocin): Synergy (FICI ≤ 0.5 is synergistic)
- Interpretation (K. pneumoniae 113250 [3]; UTBLP + rifampicin): Synergy (FICI ≤ 0.5 is synergistic)
